Laboratory results as given in PubChem BioAssay AID1033 (Sanford-Burnham Center for Chemical Genomics, 2008).
Active and inactive are the calls of the source. The rule behind the calls is not given here.

Target: Chaperone protein DnaK (Escherichia coli (strain K12)) (UniProt P0A6Y8)
Experiment: E. coli DnaK SBD ligand binding – biophysical, NMR, chaperone (AID 1033)
Conditions: Purified DnaK SBD

Chaperone protein DnaK (Escherichia coli (strain K12)), sequence (P0A6Y8 whole entry, looked up): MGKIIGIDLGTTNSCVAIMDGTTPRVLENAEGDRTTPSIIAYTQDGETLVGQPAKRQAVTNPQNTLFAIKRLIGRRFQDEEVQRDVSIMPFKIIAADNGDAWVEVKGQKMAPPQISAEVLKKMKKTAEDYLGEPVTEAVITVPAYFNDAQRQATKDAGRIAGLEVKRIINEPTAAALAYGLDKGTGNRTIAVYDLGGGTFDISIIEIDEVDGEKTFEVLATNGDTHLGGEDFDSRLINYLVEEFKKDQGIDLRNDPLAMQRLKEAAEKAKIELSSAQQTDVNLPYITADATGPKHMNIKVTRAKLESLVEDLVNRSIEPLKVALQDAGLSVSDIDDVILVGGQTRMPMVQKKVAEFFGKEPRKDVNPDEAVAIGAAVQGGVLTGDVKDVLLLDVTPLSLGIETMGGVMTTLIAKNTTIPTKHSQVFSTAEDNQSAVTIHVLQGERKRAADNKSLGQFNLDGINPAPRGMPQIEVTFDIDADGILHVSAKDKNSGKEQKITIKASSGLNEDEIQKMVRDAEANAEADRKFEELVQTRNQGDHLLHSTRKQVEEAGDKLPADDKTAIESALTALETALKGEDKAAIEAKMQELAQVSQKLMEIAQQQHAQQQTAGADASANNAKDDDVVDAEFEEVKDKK

SMILES | Kd
Cc1nn2c(=O)/c(=C/c3cccc(F)c3)sc2nc1=O | > 4 mM (inactive)
O=C(Nc1cnccn1)c1cccnc1 | > 4 mM (inactive)
COc1cc2c(cc1OC)[C@@H]1C(=O)c3ccc4c(c3O[C@@H]1CO2)CC(C(C)C)O4 (stereo not given in full) | > 4 mM (inactive)
O=C(c1ccco1)N1CCN(Cc2cccc(F)c2)CC1 | > 4 mM (inactive)
CC(=O)CC1CCCCN1 (stereo not given) | > 4 mM (inactive)
O=C1CCCC2C3CC(CN12)[C@@H]1CCCCN1C3 (stereo not given in full) | > 4 mM (inactive)
O=C1NC(=S)N/C1=C/c1ccsc1 | > 4 mM (inactive)
Cn1cc(Cl)c(C(=O)Nc2ccc(F)cc2F)n1 | > 4 mM (inactive)
CN1CCC(N2CCN(C)CC2)CC1 | > 4 mM (inactive)
NCC1CN(Cc2ccccc2)CCO1 (stereo not given) | > 4 mM (inactive)
CC1=C(/C=C/C(C)=C/C=C/C(C)=C/C=C/C=C(C)/C=C/C=C(C)/C=C/C2=C(C)CCCC2(C)C)C(C)(C)CCC1 | > 4 mM (inactive)
c1ccc(Cn2c(Nn3cnnc3)nc3ccccc32)cc1 | > 4 mM (inactive)
CCNC(=O)CC1Nc2ccccc2NC1=O (stereo not given) | > 4 mM (inactive)
Cn1c(O)c(/C=C2\C=CC=N2)c(=O)[nH]c1=S | > 4 mM (inactive)
COc1ccc(O)c(-c2cn[nH]c2-c2cccs2)c1 | > 4 mM (inactive)
O=C1CCCN1C(=O)c1ccc(F)cc1 | > 4 mM (inactive)
O=c1ccn([C@@H]2O[C@H](COP(=O)(O)OP(=O)(O)OP(=O)(O)O)[C@@H](O)[C@H]2O)c(=O)[nH]1 | > 4 mM (inactive)
CCOC(=O)N1CCCC1c1cccnc1 (stereo not given) | > 4 mM (inactive)
CC(=O)N1CCN(c2ccc(N)cc2)CC1 | > 4 mM (inactive)
CSc1nc(=O)[nH]c2c1CCC2 | > 4 mM (inactive)
CC(C)(O)[C@@H]1[C@H]2OC(=O)[C@@H]1[C@]1(O)C[C@H]3O[C@]34C(=O)O[C@H]2[C@]14C | > 4 mM (inactive)
CC(=O)O[C@H]1C[C@@H](OC(C)=O)C(C)(C)C2C[C@@H](OC(C)=O)[C@]3(C)C(CC[C@@]4(C)[C@H](c5ccoc5)C(=O)[C@H]5O[C@]543)[C@]21C (stereo not given in full) | > 4 mM (inactive)
COC(=O)c1cncc(C(=O)OC)c1 | > 4 mM (inactive)

SMILES | Kd
O=S1(=O)C=C(Nc2ccccc2)CC1 | > 4 mM (inactive)
CN1CCN(CC(O)c2ccccc2)CC1 (stereo not given) | > 4 mM (inactive)
O=C(Nc1nncs1)c1c(F)c(F)c(F)c(F)c1F | > 4 mM (inactive)
Cc1cc(=O)c2ccccc2n1CC(N)=O | > 4 mM (inactive)
CCN(CC)S(=O)(=O)c1cccc2nsnc12 | > 4 mM (inactive)
CNC(=S)N1CCN=C1Nc1nc(C)cc(C)n1 | > 4 mM (inactive)
N[C@@H](Cc1cc(I)c(Oc2cc(I)c(O)c(I)c2)c(I)c1)C(=O)O | > 4 mM (inactive)
Cc1noc(-c2ccccc2)c1CO | > 4 mM (inactive)
O=C(O)C1CCCCN1Cc1ccccc1 (stereo not given) | > 4 mM (inactive)
O=C1N/C(=N\c2ccccn2)SC1Cc1ccccc1 (stereo not given) | > 4 mM (inactive)
O=C(CSc1ccccc1)N1CCC2(CC1)OCCO2 | > 4 mM (inactive)
CCC(C)C(=O)O[C@@H]1C[C@@]2(C)[C@H](c3ccoc3)OC(=O)CC23OC2(C)OC34[C@H](OC(=O)C(C)C)[C@@]3(O)[C@@H](OC(=O)C5(C)OC5C)[C@@]5(C)C[C@]3(O)[C@@](C)([C@H]5CC(=O)OC)C14O2 (stereo not given in full) | > 4 mM (inactive)
CCc1ccc(/C=N/n2cnnc2)cc1 | > 4 mM (inactive)
Cc1c(C(=O)NCc2ccccn2)oc2ccccc12 | > 4 mM (inactive)
O=C1CCC(=O)N1c1ccc(F)cc1 | > 4 mM (inactive)
Cc1c(C(=O)OC(C)C)[nH]c2c1C(=O)CCC2 | > 4 mM (inactive)
CCN1CCc2c(sc(N)c2C#N)C1 | > 4 mM (inactive)
O=c1nc(N2CCCCC2)nc2n1CCO2 | > 4 mM (inactive)
CC(=O)Nc1sccc1C(N)=O | > 4 mM (inactive)
NC(=O)CSc1nc2ccccc2[nH]1 | > 4 mM (inactive)
NC1=NN(c2ccccc2)C(=O)C1 | > 4 mM (inactive)
Nc1cccc2cccnc12 | > 4 mM (inactive)
CCC(CO)NC(=O)c1snnc1C (stereo not given) | > 4 mM (inactive)

SMILES | Kd
CCOc1cc(S(=O)(=O)n2nc(C)cc2C)ccc1F | > 4 mM (inactive)
O=C(O)c1cc(O)c2c(c1)C(=O)c1cc(O)cc(O)c1C2=O | > 4 mM (inactive)
O=C(NC(=S)NC1CCS(=O)(=O)C1)c1ccccc1 (stereo not given) | > 4 mM (inactive)
CS(=O)(=O)Nc1ccccc1C(=O)c1ccccc1 | > 4 mM (inactive)
Cn1c(-c2ccccc2F)n[nH]c1=S | > 4 mM (inactive)
O=S1(=O)CCC2CC=CCC21 (stereo not given) | > 4 mM (inactive)
CC(C)=CC(=O)Nc1ccccc1C(N)=O | > 4 mM (inactive)
Cc1sc2nc(NCCO)[nH]c(=O)c2c1C | > 4 mM (inactive)
CSc1ccc(S(=O)(=O)N2CCCC2)cc1 | > 4 mM (inactive)
Nc1scc[n+]1CC(=O)[O-] | > 4 mM (inactive)
COc1ccc(-c2ccc(SCC(N)=O)nn2)cc1 | > 4 mM (inactive)
COC(=O)c1cccc2cc[nH]c12 | > 4 mM (inactive)
CCCS(=O)(=O)N1CCN(c2ccccn2)CC1 | > 4 mM (inactive)
O=c1[nH]cc(N2CCCCC2)c(=O)[nH]1 | > 4 mM (inactive)
CNc1ccccc1C(=O)O | > 4 mM (inactive)
COc1ccc(/C=C2/SC(N)=NC2=O)c(OC)c1 | > 4 mM (inactive)
NCc1ccc(N2CCOCC2)cc1 | > 4 mM (inactive)
COC(=O)[C@]1(C)CC[C@]2(C)CC[C@]3(C)C4=CCc5c(cc(O)c(O)c5C)[C@]4(C)CC[C@@]3(C)C2C1 (stereo not given in full) | > 4 mM (inactive)
O=C1C=C(Nc2ccc(O)cc2)c2ccccc2C1=O | > 4 mM (inactive)
O=C(O)CCCCCCCC(=O)O | > 4 mM (inactive)
Cc1oc(-c2ccccc2)cc1C(N)=O | > 4 mM (inactive)
CCOC(=O)C1=C(O)CCN(C)C1 | > 4 mM (inactive)
Nc1ccc(-c2cn3c(n2)SCC3)cc1 | > 4 mM (inactive)

SMILES | Kd
CC(O)c1ccc(C(C)O)cc1 (stereo not given) | > 4 mM (inactive)
Nc1ccc(-c2cnco2)cc1 | > 4 mM (inactive)
O=c1ccn(Cc2ccccc2)c(=O)[nH]1 | > 4 mM (inactive)
Cc1onc(-c2ccccc2)c1CN | > 4 mM (inactive)
Fc1cc2nccnc2cc1N1CCSCC1 | > 4 mM (inactive)
C=CCn1c(N)c(C(=O)N2CCOCC2)sc1=S | > 4 mM (inactive)
CC(=O)c1ccc(N2C(=O)C(C(C)C)NC2=S)cc1 (stereo not given) | > 4 mM (inactive)
C=C(C)[C@@H]1[C@H]2OC(=O)[C@@H]1[C@]1(O)C[C@H]3O[C@]34C(=O)O[C@H]2[C@]14C | > 4 mM (inactive)
c1ccc(-c2nsc(N3CCNCC3)n2)cc1 | > 4 mM (inactive)
Cc1[nH]c(=O)[nH]c(=O)c1N1CCOCC1 | > 4 mM (inactive)
C=C[C@@](C)(O)CCC1C(=C)C[C@H](OC(C)=O)C2C(C)(C)CCCC12C (stereo not given in full) | > 4 mM (inactive)
Cc1nccc2c1[nH]c1ccccc12 | > 4 mM (inactive)
CC(=O)O[C@@H]1CC2C(C)(C)[C@H](O)C[C@H](O)[C@]2(C)C2CC[C@@]3(C)C(=CC(=O)O[C@H]3c3ccoc3)[C@@]21C (stereo not given in full) | > 4 mM (inactive)
CNc1nc(OC)nc(N2CCOCC2)n1 | > 4 mM (inactive)
CN1CCC(N2CCCC(C(N)=O)C2)CC1 (stereo not given) | > 4 mM (inactive)
C[C@@H]1CCC2[C@](C)(CO)[C@@H](O)CC[C@]2(C)[C@@]12CC[C@@](CO)(CCO)O2 (stereo not given in full) | > 4 mM (inactive)
NC(=O)CC1NC(=O)c2ccccc21 (stereo not given) | > 4 mM (inactive)
Nc1nc(-c2ccc(O)cc2)cs1 | > 4 mM (inactive)
Oc1ccc(C(=S)N2CCCCC2)cc1Cl | > 4 mM (inactive)
O=C(Nc1ccccc1CO)c1ccccc1F | > 4 mM (inactive)
N#CCCn1ccnc1-c1ccccc1 | > 4 mM (inactive)
O=C(O)C1CSC(c2ccccc2)N1 (stereo not given) | > 4 mM (inactive)
O=C1c2ccc(F)cc2C(=O)N1CO | > 4 mM (inactive)

SMILES | Kd
O=C1C(=O)N(CNc2ncccn2)c2ccccc21 | > 4 mM (inactive)
O=C(c1cc2ccccc2o1)c1nc2c(n1O)CCCCC2 | > 4 mM (inactive)
O=C(c1ccco1)N1CCN(c2ccc(Cl)cc2)CC1 | > 4 mM (inactive)
CON(C)C(=O)Nc1ccc(Cl)cc1 | > 4 mM (inactive)
c1cc2c(cc1[C@H]1OC[C@H]3[C@@H]1CO[C@H]3c1ccc3c(c1)OCO3)OCO2 | > 4 mM (inactive)
c1ccc(-c2csc3ncn4nnnc4c23)cc1 | > 4 mM (inactive)
Cc1ccccc1NC(=O)N1CCOCC1 | > 4 mM (inactive)
CC1(C)C2CC[C@]3(C)C(C(=O)C=C4[C@@H]5C[C@@](C)(C(=O)O)CC[C@]5(C)CC[C@]43C)[C@@]2(C)CC[C@@H]1O (stereo not given in full) | > 4 mM (inactive)
COC(=O)c1ccc2nc[nH]c2c1 | > 4 mM (inactive)
NCc1ccc2occc2c1 | > 4 mM (inactive)
Cn1cnc2c1c(=O)[nH]c(=O)n2C | > 4 mM (inactive)
OC12C=CC(CC1)CC2 | > 4 mM (inactive)
Nc1nc2ccc(C(=O)O)cc2s1 | > 4 mM (inactive)
C/C(O)=c1/sc2cc(C)nc(=N)n2c1=O | > 4 mM (inactive)
COC(=O)C[C@H]1C2(C)CC34OC5(C)O[C@@]6([C@H](OC)C(OC(=O)C(C)C)[C@]7(C)C(/C(=C(/OC)C(C)C)C(=O)O[C@H]7c7ccoc7)[C@@]6(O5)[C@H](OC)[C@@]3(OC)C2OC(C)=O)[C@]14C (stereo not given in full) | > 4 mM (inactive)
Cc1nc2ccccc2c(=O)n1/N=C/c1ccncc1 | > 4 mM (inactive)
COc1ccc(-c2ccc(=O)n(CC(N)=O)n2)cc1 | > 4 mM (inactive)
CNC(=O)C(=O)NCc1ccc(C)cc1 | > 4 mM (inactive)
NCc1ccc(-c2cccs2)cc1 | > 4 mM (inactive)
O=S1(=O)C=CC(Nc2ccccc2)C1 (stereo not given) | > 4 mM (inactive)
Cc1cc(C)n(CCCC(=O)O)n1 | > 4 mM (inactive)
Cn1cnc2c(=S)[nH]c(=O)n(Cc3ccccc3)c21 | > 4 mM (inactive)
Cc1cc(C)n(CC(=O)O)n1 | > 4 mM (inactive)
